We go through four compounds from patent publication US12502369B2, “Methods of cancer treatment” (K-GEN, INC., priority 2015, dated 2025).

Common to all, as to format: cell-based
One assay concerns SW620. Put plainly: Proliferation assay (CellTiter Glo), SW620. Here is the method:
(§1) Briefly, cells at a density of 1,000-10,000 cells/well were seeded in 96-well plates and incubated at 37′C for 24 hours. A series of 9 different concentrations of compound stocks (500×) were created by 3-fold serial dilution in DMSO. These compounds were further diluted in culture media and then added to cells so that the final DMSO concentration was 0.2%. After 96 hours of incubation, 50 μL of CellTiter Glo reagent (Promega) was added to each well and luminescence was measured after 10 minutes using EnVision (PerkinElmer). […] The dose range for most compounds was 4.6 nM-30 μM. The dose ranges for some compounds were adjusted downward to 0.46 nM-3 μM or 0.08 nM-0.5 μM or 0.03 nM-0.2 μM. Luminescence from cells treated with […] alone was set as Max and % of inhibition was calculated as follows: Inhibition %=(Max-Sample value)/Max*100. Data was analyzed using XL-fit software (ID Business Solutions Ltd.) and EC50, relative EC50, and % of top inhibition were calculated. The results are shown in Tables 3-6 for pancreatic cancer, lung cancer, colon/gastric cancer, and leukemia cell lines.
On the technique in general: ATP-based viability assays read luminescence as a measure of living cells.

A further assay concerns BxPC-3. Put plainly: Proliferation assay (CellTiter Glo), BxPC-3. The note with it: BxPC-3 (WT K-ras). The protocol: as §1, with “calculated.” for “calculated. The results are shown in Tables 3-6 for pancreatic cancer, lung cancer, colon/gastric cancer, and leukemia cell lines.”
(§2) Other cancer cell lines having wild-type K-ras status and K-ras mutation at G12 were also screened using the PKC activator compounds. […] K-104 was tested in a range of 0.03 nM-0.2 μM. […] The dose ranges were adjusted downward to 0.46 nM-3 μM for K-102 and 0.08 nM-0.5 μM for K-103 for some cell lines.

The subject of the next assay is MiaPaCa-2. Put plainly: Proliferation assay (CellTiter Glo), MiaPaCa-2. Here is the method:
as §1, with “calculated.” for “calculated. The results are shown in Tables 3-6 for pancreatic cancer, lung cancer, colon/gastric cancer, and leukemia cell lines.”

In the next assay the test system is KP-4. Put plainly: Proliferation assay (CellTiter Glo), KP-4. The protocol:
as §1

For a further assay, the system named is HCT116. Put plainly: Proliferation assay (CellTiter Glo), HCT116. The protocol: as §1
For another assay, the system named is H358. Put plainly: Proliferation assay (CellTiter Glo), H358. The protocol: as §1
The subject of a further assay is H838. Put plainly: Proliferation assay (CellTiter Glo), H838. The note with it: H838 (WT K-ras). Here is the method:
as §1, with “calculated.” for “calculated. The results are shown in Tables 3-6 for pancreatic cancer, lung cancer, colon/gastric cancer, and leukemia cell lines.”
as §2

Another assay deals with H1915. Put plainly: Proliferation assay (CellTiter Glo), H1915. The note with it: H1915 (WT K-ras). Here is the method:
as §1, with “calculated.” for “calculated. The results are shown in Tables 3-6 for pancreatic cancer, lung cancer, colon/gastric cancer, and leukemia cell lines.”
as §2

The next assay relates to H727. Put plainly: Proliferation assay (CellTiter Glo), H727. The protocol: as §1
For another assay, the system named is HL60. Put plainly: Proliferation assay (CellTiter Glo), HL60. Here is the method: as §1
A further assay deals with AGS. Put plainly: Proliferation assay (CellTiter Glo), AGS. The protocol:
as §1

Another assay deals with SW900. Put plainly: Proliferation assay (CellTiter Glo), SW900. The note with it: SW900 (K-ras: G12V). The protocol:
as §1, with “calculated.” for “calculated. The results are shown in Tables 3-6 for pancreatic cancer, lung cancer, colon/gastric cancer, and leukemia cell lines.”
as §2

The test system of the next assay is THP1. Put plainly: Proliferation assay (CellTiter Glo), THP1. Here is the method:
as §1

A further assay relates to A549. Put plainly: Proliferation assay (CellTiter Glo), A549. Here is the method: as §1
The test system of another assay is Capan-1. Put plainly: Proliferation assay (CellTiter Glo), Capan-1. Here is the method:
as §1

The next assay has as its system LS180. Put plainly: Proliferation assay (CellTiter Glo), LS180. Here is the method: as §1
Another assay deals with H441. Put plainly: Proliferation assay (CellTiter Glo), H441. The protocol: as §1
For another assay, the system named is Colo205. Put plainly: Proliferation assay (CellTiter Glo), Colo205. To be noted: Colo205 (WT K-ras). Here is the method: as §1, with “calculated.” for “calculated. The results are shown in Tables 3-6 for pancreatic cancer, lung cancer, colon/gastric cancer, and leukemia cell lines.”
as §2

In a further assay the test system is RPMI8226. Put plainly: Proliferation assay (CellTiter Glo), RPMI8226. To be noted: RPMI8226 (K-ras: G12A). Here is the method:
as §1, with “calculated.” for “calculated. The results are shown in Tables 3-6 for pancreatic cancer, lung cancer, colon/gastric cancer, and leukemia cell lines.”
as §2

A further assay has as its system HT29. Put plainly: Proliferation assay (CellTiter Glo), HT29. The note with it: HT29 (WT K-ras). Here is the method:
as §1, with “calculated.” for “calculated. The results are shown in Tables 3-6 for pancreatic cancer, lung cancer, colon/gastric cancer, and leukemia cell lines.”
as §2

Another assay concerns AsPC-1. Put plainly: Proliferation assay (CellTiter Glo), AsPC-1. Here is the method: as §1
A further assay deals with Panc2.13. Put plainly: Proliferation assay (CellTiter Glo), Panc2.13. Here is the method: as §1
The subject of the next assay is Panc2.03. Put plainly: Proliferation assay (CellTiter Glo), Panc2.03. To be noted: for Top inhibition %: 96 hours. Here is the method: as §1
Another assay has as its system CCRF-CEM. Put plainly: Proliferation assay (CellTiter Glo), CCRF-CEM. Here is the method:
as §1

Assay [1] deals with K-Ras mutant pancreatic, lung, and colon cancer cell lines, leukemia cell lines. Put plainly: Proliferation assays, panel of cancer cell lines (summary statements). Here is the method:
as §1

Where [2] appears, read: absolute EC50, 96 hours, read-out: Ab EC50.
Setting [3] is: relative EC50, 96 hours, read-out: Re EC50.

The EC50 is the concentration needed to bring the measured effect to its halfway point.

Where two headings read alike, the source gives them in different places.

Consider `CC(=O)O[C@@]12C[C@@H](C)[C@]3(O)C4C=C(C)C(O)[C@@]4(O)CC(CO)=C[C@H]3[C@@H]1C2(C)C` (some centres unmarked) [Compound K-101C], for which the Top inhibition % worked out at 0.0% with SW620 (96 hours); 36.67% in the assay on BxPC-3; 40.1% with MiaPaCa-2 (96 hours); 70.4% with KP-4 (96 hours); 12.2% with HCT116 (96 hours); 44.0% with H358 (96 hours). Also, the “Top inhibition %” value came to 20.2% in the assay with H838; 28.9% with H1915; 42.8% in the assay with H727 (96 hours); 63.9% in the assay with HL60 (96 hours); 25.3% in the assay on AGS (96 hours); 10.9% in the assay with SW900. In addition, the Top inhibition % in the assay with THP1 (96 hours) turned out to be 51.4%; in the assay with A549 (96 hours), 70.3%; with Capan-1 (96 hours) it was 35.7%; in the assay with LS180 (96 hours), 6.8%; in the assay with H441 (96 hours), 37.0%; in the assay with Colo205 it was 73.2%. Moreover, the “Top inhibition %” value in the assay with RPMI8226 is given as 22.72%; in the assay on HT29 it was 4.8%. Besides, the EC50 is over 30 µM with SW620 (setting [2]); over 30 µM in the assay on MiaPaCa-2 (setting [2]); 4.37 µM in the assay on MiaPaCa-2 (setting [3]); 11 µM in the assay with KP-4 (setting [2]); 6.77 µM with KP-4 (setting [3]); over 30 µM with HCT116 (setting [2]). In addition, the concentration giving a half-maximal response (EC50) with H358 (setting [2]) is over 30 µM; with H358 (setting [3]), 4.98 µM; with H727 (setting [2]), over 30 µM; in the assay on H727 (setting [3]), 3.61 µM; in the assay with HL60 (setting [2]), 17 µM; with HL60 (setting [3]), 13 µM. For the same compound, the EC50 in the assay with AGS (setting [2]) was over 30 µM; in the assay with AGS (setting [3]), 11 µM; in the assay with THP1 (setting [2]), 16 µM; with THP1 (setting [3]), 8.11 µM; in the assay with A549 (setting [2]) it was 13 µM; with A549 (setting [3]) it was 6.68 µM. Also, the EC50 with Capan-1 (setting [2]) is over 30 µM; in the assay with Capan-1 (setting [3]) it was 5.4 µM; in the assay on LS180 (setting [2]), over 30 µM; with H441 (setting [2]), over 30 µM; in the assay with H441 (setting [3]), 7.44 µM.

`CC(=O)O[C@@]12C[C@@H](C)[C@]3(O)C4C=C(C)C(=O)[C@@]4(O)CC(COC(=O)CC(N)C(=O)[O-])=C[C@H]3[C@@H]1C2(C)C.[Na+]` (some centres unmarked) [Compound K-101I]: the “Top inhibition %” value in the assay on BxPC-3 is recorded as 38.12%; with H838 it was 29.3%; with H1915 it was 16.4%; in the assay with SW900, 10.8%; in the assay with AsPC-1 (96 hours), 25.0%; in the assay with Panc2.13 (96 hours), 48.3%. The Top inhibition % in the assay with Panc2.03 was determined as 26.3%; in the assay with Colo205, 82.2%; in the assay on RPMI8226, 17.60%; with HT29, 11.8%; in the assay on CCRF-CEM (96 hours), 37.4%. For the same compound, the EC50 with AsPC-1 (setting [2]) was over 30 µM; with AsPC-1 (setting [3]), 6.64 µM; with Panc2.13 (setting [2]) it was over 30 µM; in the assay with Panc2.13 (setting [3]) it was 0.16 µM; in the assay on Panc2.03 (setting [2]), over 30 µM; with Panc2.03 (setting [3]) it was 6.04 µM. For the same compound, the EC50 with CCRF-CEM (setting [2]) is over 30 µM; in the assay on CCRF-CEM (setting [3]), 1.51 µM.

For `CCC/C=C/C=C/C(=O)O[C@H]1/C(=C/C(=O)OC)C[C@H]2C[C@H]([C@@H](C)O)OC(=O)C[C@H](O)C[C@@H]3C[C@H](OC(C)=O)C(C)(C)[C@](O)(C[C@@H]4C/C(=C/C(=O)OC)C[C@H](/C=C/C(C)(C)[C@]1(O)O2)O4)O3` [Compound K-104, Bryostatin 1], the “potency in proliferation inhibition relative to prostratin” value in [1] is “less potent in proliferation inhibition”. Further, the “activity in cancer cell lines” value in [1] (cell lines with wild-type K-ras and K-ras G12 mutations (Table 7)) was “much lower activity”.

Regarding `CC(=O)O[C@H]1C(=O)[C@@]2(C)[C@H]([C@H](OC(=O)c3ccccc3)[C@]3(O)C[C@H](OC(=O)[C@H](O)[C@@H](NC(=O)c4ccccc4)c4ccccc4)C(C)=C1C3(C)C)[C@]1(OC(C)=O)CO[C@@H]1C[C@@H]2O` [Paclitaxel, reference compound], the Top inhibition % in the assay with Panc2.03 was 64.6%.
